From US4172782A, “Recovery of catalyst” (Sumitomo Chemical Company, Limited, priority 1977, dated 1979)

Assay: Solubility of tetra-n-butylammonium bromide in aqueous sodium hydroxide solutions
Format: physicochemical
Settings: aqueous NaOH, 20° C.
Experimental: The organic quaternary ammonium salt is soluble both in water and in the oil layer. Its solubility in an aqueous alkali solution varies with the concentration of the alkali. The solubilities of tetra-n-butylammonium bromide, as an example of organic quaternary ammonium salts, in aqueous sodium hydroxide solutions were measured at 20° C. and the results obtained were as shown in Table 1.

## CCCC[N+](CCCC)(CCCC)CCCC.[Br-] [tetra-n-butylammonium bromide]
1% by wt.
  Solubility of tetra-n-butylammonium bromide: 27 % by wt.
2% by wt.
  Solubility of tetra-n-butylammonium bromide: 11 % by wt.
5% by wt.
  Solubility of tetra-n-butylammonium bromide: 2.4 % by wt.
10% by wt.
  Solubility of tetra-n-butylammonium bromide: 1.2 % by wt.
15% by wt.
  Solubility of tetra-n-butylammonium bromide: 0.07 % by wt.
